Experimental findings from ChEMBL document CHEMBL1136918, “Optimization of pyrazole inhibitors of Coactivator Associated Arginine Methyltransferase 1 (CARM1)” (Bioorg Med Chem Lett, 2009) are described below.

Each structure is given as a SMILES string.

For data set [1], the target named is T1, Histone-arginine methyltransferase CARM1 (Homo sapiens, UniProt Q86X55).
T1 sequence (Q86X55 whole entry): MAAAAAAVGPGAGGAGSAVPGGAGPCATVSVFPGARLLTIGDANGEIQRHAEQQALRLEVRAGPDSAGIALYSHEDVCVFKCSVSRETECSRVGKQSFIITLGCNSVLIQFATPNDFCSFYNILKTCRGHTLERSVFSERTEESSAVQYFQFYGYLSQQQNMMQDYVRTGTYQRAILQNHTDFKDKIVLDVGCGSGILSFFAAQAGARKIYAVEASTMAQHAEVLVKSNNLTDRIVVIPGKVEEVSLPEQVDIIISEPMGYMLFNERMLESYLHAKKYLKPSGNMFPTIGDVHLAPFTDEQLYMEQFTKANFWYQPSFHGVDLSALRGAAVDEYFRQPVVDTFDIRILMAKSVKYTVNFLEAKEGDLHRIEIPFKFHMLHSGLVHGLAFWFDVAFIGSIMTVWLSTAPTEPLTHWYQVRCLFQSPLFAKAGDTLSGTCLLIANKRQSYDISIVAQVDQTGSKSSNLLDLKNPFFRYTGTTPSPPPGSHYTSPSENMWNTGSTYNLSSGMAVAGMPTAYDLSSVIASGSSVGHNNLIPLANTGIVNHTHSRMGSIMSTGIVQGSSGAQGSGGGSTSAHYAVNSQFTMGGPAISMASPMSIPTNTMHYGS
Description: Inhibition of CARM1 assessed as blockade of histone H3 methylation.

The target of data set [2] is Cytochrome P450 3A4 (Homo sapiens, UniProt P08684). Description: Inhibition of CYP3A4 expressed in human hepatocytes. The format is ADME, cell-based, Hepatocyte.
Data set [3] concerns the target Cytochrome P450 2D6 (Homo sapiens, UniProt P10635). Description: Inhibition of CYP2D6 expressed in human hepatocytes. The format is ADME, cell-based, Hepatocyte.
The nature of data set [4]: Membrane permeability by PAMPA. The format is ADME. The conditions noted are these: read-out: permeability.
Data set [5] concerns the target T2, Nuclear receptor subfamily 1 group I member 2 (Homo sapiens, UniProt O75469).
T2 sequence (O75469 whole entry): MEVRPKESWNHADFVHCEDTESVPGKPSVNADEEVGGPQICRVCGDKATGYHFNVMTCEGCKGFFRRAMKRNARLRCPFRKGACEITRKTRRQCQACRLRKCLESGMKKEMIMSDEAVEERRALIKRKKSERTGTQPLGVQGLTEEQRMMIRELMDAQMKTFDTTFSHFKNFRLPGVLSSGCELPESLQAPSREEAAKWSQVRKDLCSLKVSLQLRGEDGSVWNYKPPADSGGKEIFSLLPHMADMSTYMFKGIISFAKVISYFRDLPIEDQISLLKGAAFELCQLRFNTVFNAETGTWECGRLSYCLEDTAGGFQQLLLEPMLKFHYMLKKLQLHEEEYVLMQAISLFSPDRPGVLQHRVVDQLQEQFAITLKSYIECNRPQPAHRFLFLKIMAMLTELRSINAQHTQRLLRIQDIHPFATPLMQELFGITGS
Description: Inhibition of human PXR.

Data set [6] has as its target Cytochrome P450 2C9 (Homo sapiens, UniProt P11712). As to the kind of experiment: Inhibition of CYP2C9 expressed in human hepatocytes. The format is ADME, cell-based, Hepatocyte.
The target in data set [7] is Protein arginine N-methyltransferase 1 (Homo sapiens, UniProt Q99873). As to the kind of experiment: Inhibition of PRMT1 by methylation assay.
Data set [8] addresses Cytochrome P450 2C19 (Homo sapiens, UniProt P33261). Description: Inhibition of CYP2C19 expressed in human hepatocytes. The format is ADME, cell-based, Hepatocyte.
A short description of data set [9]: Metabolic stability in human microsomes per microgram of protein. The format is ADME, Microsome.
For data set [10], the target named is Protein arginine N-methyltransferase 3 (Homo sapiens, UniProt O60678). As to the kind of experiment: Inhibition of PRMT3 by methylation assay.
A short description of data set [11]: Toxicity against human hepatocytes. The format is cell-based, Hepatocyte.

Chain of Protein arginine N-methyltransferase 3 (O60678 whole entry): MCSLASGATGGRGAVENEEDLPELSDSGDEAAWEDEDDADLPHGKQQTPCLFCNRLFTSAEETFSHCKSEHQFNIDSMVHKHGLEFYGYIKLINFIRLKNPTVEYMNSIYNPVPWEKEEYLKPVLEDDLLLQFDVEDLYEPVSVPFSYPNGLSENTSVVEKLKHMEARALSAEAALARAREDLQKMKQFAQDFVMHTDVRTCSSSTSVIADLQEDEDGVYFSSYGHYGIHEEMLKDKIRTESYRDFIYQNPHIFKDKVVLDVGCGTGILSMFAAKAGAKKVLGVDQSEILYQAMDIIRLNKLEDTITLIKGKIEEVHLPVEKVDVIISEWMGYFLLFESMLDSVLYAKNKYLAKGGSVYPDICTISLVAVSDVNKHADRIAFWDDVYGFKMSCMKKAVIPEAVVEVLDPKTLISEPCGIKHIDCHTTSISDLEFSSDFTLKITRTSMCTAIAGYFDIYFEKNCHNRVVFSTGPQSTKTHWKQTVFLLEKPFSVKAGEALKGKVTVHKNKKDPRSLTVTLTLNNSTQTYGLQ
Chain of Cytochrome P450 2C9 (P11712 whole entry): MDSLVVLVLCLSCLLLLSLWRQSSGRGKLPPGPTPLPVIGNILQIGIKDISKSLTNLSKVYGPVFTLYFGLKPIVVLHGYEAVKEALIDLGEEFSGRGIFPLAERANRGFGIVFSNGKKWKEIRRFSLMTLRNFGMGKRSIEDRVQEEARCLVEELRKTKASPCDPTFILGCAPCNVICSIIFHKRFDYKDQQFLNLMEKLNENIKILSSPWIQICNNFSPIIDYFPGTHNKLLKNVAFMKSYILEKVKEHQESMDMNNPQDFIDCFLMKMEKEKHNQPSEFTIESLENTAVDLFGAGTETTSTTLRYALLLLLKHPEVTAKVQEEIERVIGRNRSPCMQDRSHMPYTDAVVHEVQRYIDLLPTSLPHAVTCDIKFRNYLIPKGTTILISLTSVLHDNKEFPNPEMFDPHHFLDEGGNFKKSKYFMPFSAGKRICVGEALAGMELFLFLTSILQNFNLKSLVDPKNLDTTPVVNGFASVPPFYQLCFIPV
Chain of Protein arginine N-methyltransferase 1 (Q99873 whole entry): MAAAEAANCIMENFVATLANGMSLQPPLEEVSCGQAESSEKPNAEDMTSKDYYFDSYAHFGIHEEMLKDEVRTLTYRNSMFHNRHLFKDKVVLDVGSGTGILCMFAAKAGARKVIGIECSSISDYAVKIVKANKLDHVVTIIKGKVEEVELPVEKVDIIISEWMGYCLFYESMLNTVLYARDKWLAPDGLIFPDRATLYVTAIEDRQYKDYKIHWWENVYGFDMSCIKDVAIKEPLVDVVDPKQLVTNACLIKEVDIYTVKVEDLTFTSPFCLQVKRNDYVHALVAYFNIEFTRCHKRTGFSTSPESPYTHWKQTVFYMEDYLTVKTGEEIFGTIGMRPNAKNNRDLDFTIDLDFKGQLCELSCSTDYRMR
Chain of Cytochrome P450 3A4 (P08684 whole entry): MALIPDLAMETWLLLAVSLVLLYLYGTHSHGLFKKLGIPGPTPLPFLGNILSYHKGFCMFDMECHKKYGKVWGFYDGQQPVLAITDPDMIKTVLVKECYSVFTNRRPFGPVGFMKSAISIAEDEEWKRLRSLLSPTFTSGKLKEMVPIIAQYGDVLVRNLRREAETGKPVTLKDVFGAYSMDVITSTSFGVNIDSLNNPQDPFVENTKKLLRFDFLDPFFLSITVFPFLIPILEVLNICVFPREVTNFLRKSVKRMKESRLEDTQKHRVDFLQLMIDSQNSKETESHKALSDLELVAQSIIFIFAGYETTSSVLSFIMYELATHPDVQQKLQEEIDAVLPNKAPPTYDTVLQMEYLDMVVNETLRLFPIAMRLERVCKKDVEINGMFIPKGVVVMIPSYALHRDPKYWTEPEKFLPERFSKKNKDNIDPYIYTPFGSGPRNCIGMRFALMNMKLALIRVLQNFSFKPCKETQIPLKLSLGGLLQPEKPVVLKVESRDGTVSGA
Chain of Cytochrome P450 2D6 (P10635 whole entry): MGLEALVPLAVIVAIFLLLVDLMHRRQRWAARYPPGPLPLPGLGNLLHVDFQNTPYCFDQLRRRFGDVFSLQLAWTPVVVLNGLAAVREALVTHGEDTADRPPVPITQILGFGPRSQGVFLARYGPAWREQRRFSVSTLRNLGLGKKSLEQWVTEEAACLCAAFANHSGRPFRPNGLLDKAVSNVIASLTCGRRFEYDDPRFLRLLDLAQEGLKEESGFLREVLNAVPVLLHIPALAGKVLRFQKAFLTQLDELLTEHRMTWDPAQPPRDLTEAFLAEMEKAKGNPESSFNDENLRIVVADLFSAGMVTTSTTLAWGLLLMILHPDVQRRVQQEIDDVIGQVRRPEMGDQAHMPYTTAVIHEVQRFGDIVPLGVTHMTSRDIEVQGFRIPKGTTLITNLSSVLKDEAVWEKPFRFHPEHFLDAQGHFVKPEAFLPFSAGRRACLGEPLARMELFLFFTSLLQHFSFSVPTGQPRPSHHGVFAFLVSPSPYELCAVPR
Chain of Cytochrome P450 2C19 (P33261 whole entry): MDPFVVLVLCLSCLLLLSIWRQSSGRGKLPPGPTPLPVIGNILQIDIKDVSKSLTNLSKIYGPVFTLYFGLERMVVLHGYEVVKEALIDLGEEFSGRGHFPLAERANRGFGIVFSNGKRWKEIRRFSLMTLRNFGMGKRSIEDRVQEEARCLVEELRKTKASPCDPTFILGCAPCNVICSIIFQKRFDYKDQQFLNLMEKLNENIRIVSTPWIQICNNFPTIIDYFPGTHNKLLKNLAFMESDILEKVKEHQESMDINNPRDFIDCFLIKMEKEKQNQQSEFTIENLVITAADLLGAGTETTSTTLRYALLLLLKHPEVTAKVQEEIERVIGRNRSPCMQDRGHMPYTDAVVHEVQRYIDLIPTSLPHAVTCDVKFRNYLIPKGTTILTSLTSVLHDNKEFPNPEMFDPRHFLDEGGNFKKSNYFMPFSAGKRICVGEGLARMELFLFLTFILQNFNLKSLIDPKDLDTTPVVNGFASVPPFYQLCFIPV

Consider `C[C@H](N)C(=O)N(C)Cc1cccc(-n2nc(C(F)(F)F)cc2-c2nnc(-c3ccccc3)o2)c1`, for which the IC50 in data set [1] was greater than 10 µM.

On to `C[C@H](N)C(=O)NCc1cccc(-n2nc(C(F)(F)F)cc2-c2nnc(-c3cccc4ncsc34)o2)c1`, for which the IC50 in data set [2] was greater than 100 µM; in data set [3] it was greater than 100 µM; in data set [1] it was 0.04 µM; in data set [6], greater than 100 µM; in data set [7], greater than 25 µM; in data set [8], greater than 100 µM. Besides, the IC50 was greater than 25 µM in [10] and greater than 100 µM in data set [11]. The Papp in data set [4] turned out to be 267 nm/s. For the same molecule, the half-maximal effective concentration (EC50) in data set [5] is greater than 25 µM. Further, the Stability in [9] came out at 0.026 nM/min.

For the molecule `C[C@H](N)CNCc1cccc(-n2nc(C(F)(F)F)cc2-c2nnc(-c3ccccc3)o2)c1`, the concentration for half-maximal inhibition (IC50) in [1] is greater than 10 µM.

On to `COc1ccccc1Nc1nnc(-c2cc(C(F)(F)F)nn2-c2cccc(CNC(=O)[C@H](C)N)c2)o1`, for which, in data set [4], the Papp is less than 15 nm/s.

As for `C[C@H](N)C(=O)NCc1cccc(-n2nc(C(F)(F)F)cc2-c2nnc(-c3ccccc3)o2)c1`, the Papp in [4] was 106 nm/s.

Turning to `C[C@H](N)C(=O)NCc1cccc(-n2nc(C(F)(F)F)cc2C(=O)NCc2ccccc2)c1`, the Papp in [4] is less than 15 nm/s.
